According to patent US8497380B2, “Substituted acetophenones useful as PDE4 inhibitors” (Leo Pharma A/S, priority 2006, dated 2013):

Each compound was assayed on Human peripheral blood mononuclear cells (PBMC) (assay: TNFalfa-Release). Conditions: inhibition of TNF-a secretion, PBMC pre-incubated 30 minutes, stimulated 18 hours with lipopolysaccharide.
Format: cell-based
Procedure, shortened: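 Buffy-coat PBMC at 5×105 c/ml in RPMI1640 with 2% FCS were pre-incubated 30 min with compound, then stimulated 18 h with LPS 1 mg/ml. Supernatant TNF-a measured by enzyme immunoassay; pIC50 from inhibition curves relative to LPS-stimulated and unstimulated wells.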
`COc1ccc(C(=O)Cc2c(Cl)cncc2Cl)c(OCC(=O)NC[C@H](O)c2ccccc2)c1OC` [Compound 252, (R)-2-{6-[2-(3,5-Dichloro-pyridin-4-yl)-acetyl]-2,3-dimethoxy-phenoxy}-N-(2-hydroxy-2-phenyl-ethyl)-acetamide] was tested, and the IC50 was under 1 µM.
For `COc1ccc(C(=O)Cc2c(Cl)cncc2Cl)c(OCC(=O)NC[C@@H](O)c2ccccc2)c1OC` [Compound 253, (S)-2-{6-[2-(3,5-Dichloro-pyridin-4-yl)-acetyl]-2,3-dimethoxy-phenoxy}-N-(2-hydroxy-2-phenyl-ethyl)-acetamide], the IC50 was under 1 µM.
With `COc1ccc(C(=O)Cc2c(Cl)cncc2Cl)c(OCC(=O)NCc2cccs2)c1OC` [Compound 254, 2-{6-[2-(3,5-Dichloro-pyridin-4-yl)-acetyl]-2,3-dimethoxy-phenoxy}-N-thiophen-2-ylmethyl-acetamide] the IC50 was under 1 µM.
`COc1ccc(C(=O)Cc2c(Cl)cncc2Cl)c(OCC(=O)NCCCN2CCCC2=O)c1OC` [Compound 255, 2-{6-[2-(3,5-Dichloro-pyridin-4-yl)-acetyl]-2,3-dimethoxy-phenoxy}-N-[3-(2-oxo-pyrrolidin-1-yl)-propyl]-acetamide] was tested, and the IC50 was under 1 µM.
With `COc1ccc(C(=O)Cc2c(Cl)cncc2Cl)c(OCC(=O)NC2c3ccccc3C[C@H]2O)c1OC` (stereo partly drawn) [Compound 256, (2R)-2-{6-[2-(3,5-Dichloro-pyridin-4-yl)-acetyl]-2,3-dimethoxy-phenoxy}-N-(2-hydroxy-indan-1-yl)-acetamide] the IC50 was under 1 µM.
In the case of `COc1ccc(C(=O)Cc2c(Cl)cncc2Cl)c(OCC(=O)NCC2CCCCCC2)c1OC` [Compound 257, N-Cycloheptylmethyl-2-{6-[2-(3,5-dichloro-pyridin-4-yl)-acetyl]-2,3-dimethoxy-phenoxy}-acetamide], the IC50 is reported as under 1 µM.
`COc1ccc(C(=O)Cc2c(Cl)cncc2Cl)c(OCC(=O)NCCOCCO)c1OC` [Compound 258, 2-{6-[2-(3,5-Dichloro-pyridin-4-yl)-acetyl]-2,3-dimethoxy-phenoxy}-N-[2-(2-hydroxy-ethoxy)-ethyl]-acetamide] showed an IC50 of under 1 µM.
`COc1ccc(C(=O)Cc2c(Cl)cncc2Cl)c(O)c1OC1CCCC1` [Compound 260, 1-(3-Cyclopentyloxy-2-hydroxy-4-methoxy-phenyl)-2-(3,5-dichloro-pyridin-4-yl)-ethanone] showed an IC50 of under 1 µM.
`COc1ccc(C(=O)Cc2c(Cl)cncc2Cl)c(O)c1OCC1CC1` [Compound 261, 1-(3-Cyclopropylmethoxy-2-hydroxy-4-methoxy-phenyl)-2-(3,5-dichloro-pyridin-4-yl)-ethanone] showed an IC50 of under 1 µM.
For `CCOc1c(OC)ccc(C(=O)Cc2c(Cl)cncc2Cl)c1O` [Compound 262, 2-(3,5-Dichloro-pyridin-4-yl)-1-(3-ethoxy-2-hydroxy-4-methoxy-phenyl)-ethanone], the IC50 was under 1 µM.
With `CCOc1c(OC)ccc(C(=O)Cc2c(Cl)cncc2Cl)c1OCCc1ccccc1` [Compound 263, 2-(3,5-Dichloro-pyridin-4-yl)-1-(3-ethoxy-4-methoxy-2-phenethyloxy-phenyl)-ethanone] the IC50 was under 1 µM.
For `CCOc1c(OC)ccc(C(=O)Cc2c(Cl)cncc2Cl)c1OCc1nnc(C2CC2)s1` [Compound 264, 1-[2-(5-Cyclopropyl-[1,3,4]thiadiazol-2-ylmethoxy)-3-ethoxy-4-methoxy-phenyl]-2-(3,5-dichloro-pyridin-4-yl)-ethanone], the IC50 was under 1 µM.
Work on `CCOc1c(OC)ccc(C(=O)Cc2c(Cl)cncc2Cl)c1OCC(=O)OCc1ccccc1` [Compound 265, {6-[2-(3,5-Dichloro-pyridin-4-yl)-acetyl]-2-ethoxy-3-methoxy-phenoxy}-acetic acid benzyl ester] yielded an IC50 of under 1 µM.
`C=CCOc1c(OC)ccc(C(=O)Cc2c(Cl)cncc2Cl)c1O` [Compound 266, 1-(3-Allyloxy-2-hydroxy-4-methoxy-phenyl)-2-(3,5-dichloro-pyridin-4-yl)-ethanone] gave an IC50 of under 1 µM.
For `C=CCOc1c(OC)ccc(C(=O)Cc2c(Cl)cncc2Cl)c1OCc1ccccc1C#N` [Compound 267, 2-{2-Allyloxy-6-[2-(3,5-dichloro-pyridin-4-yl)-acetyl]-3-methoxy-phenoxymethyl}-benzonitrile], the IC50 was under 1 µM.
Compound `C=CCOc1c(OC)ccc(C(=O)Cc2c(Cl)cncc2Cl)c1OCCc1ccccc1` [Compound 268, 1-(3-Allyloxy-4-methoxy-2-phenethyloxy-phenyl)-2-(3,5-dichloro-pyridin-4-yl)-ethanone] has an IC50 of under 1 µM.
`C=CCOc1c(OC)ccc(C(=O)Cc2c(Cl)cncc2Cl)c1OCCc1ccc(F)cc1` [Compound 269, 1-{3-Allyloxy-2-[2-(4-fluoro-phenyl)-ethoxy]-4-methoxy-phenyl}-2-(3,5-dichloro-pyridin-4-yl)-ethanone] showed an IC50 of under 1 µM.
`COc1ccc(C(=O)Cc2c(Cl)c[n+]([O-])cc2Cl)c(OCC(=O)NCc2ccccc2)c1OC` [Compound 270, N-Benzyl-2-{6-[2-(3,5-dichloro-1-oxy-pyridin-4-yl)-acetyl]-2,3-dimethoxy-phenoxy}-acetamide] showed an IC50 of under 1 µM.
In the case of `COc1ccc(C(=O)Cc2c(Cl)c[n+]([O-])cc2Cl)c(OCCc2ccccc2)c1OC` [Compound 271, 2-(3,5-Dichloro-1-oxy-pyridin-4-yl)-1-(3,4-dimethoxy-2-phenethyloxy-phenyl)-ethanone], the IC50 is reported as under 1 µM.
For `COc1ccc(C(=O)Cc2c(Cl)cncc2Cl)c(OCCc2ccncc2)c1OC` [Compound 277, 2-(3,5-Dichloro-pyridin-4-yl)-1-[3,4-dimethoxy-2-(2-pyridin-4-yl-ethoxy)-phenyl]-ethanone], the IC50 was under 1 µM.
In the case of `COc1ccc(C(=O)Cc2c(Cl)cncc2Cl)c(OCCc2ccc(C#N)cc2)c1OC` [Compound 278, 4-(2-{6-[2-(3,5-Dichloro-pyridin-4-yl)-acetyl]-2,3-dimethoxy-phenoxy}-ethyl)-benzonitrile], the IC50 is reported as under 1 µM.
For `COc1ccc(C(=O)Cc2c(Cl)cncc2Cl)c(OCCc2ccccn2)c1OC` [Compound 279, 2-(3,5-Dichloro-pyridin-4-yl)-1-[3,4-dimethoxy-2-(2-pyridin-2-yl-ethoxy)-phenyl]-ethanone], the IC50 was under 1 µM.
`COc1ccc(C(=O)Cc2c(Cl)cncc2Cl)c(OCCc2cccnc2)c1OC` [Compound 280, 2-(3,5-Dichloro-pyridin-4-yl)-1-[3,4-dimethoxy-2-(2-pyridin-3-yl-ethoxy)-phenyl]-ethanone] showed an IC50 of under 1 µM.
`COc1ccc(C(=O)Cc2c(Cl)cncc2Cl)c(OCCc2ccc([S+](C)[O-])cc2)c1OC` (stereo not drawn) [Compound 281, 2-(3,5-Dichloro-pyridin-4-yl)-1-{2-[2-(4-methanesulfinyl-phenyl)-ethoxy]-3,4-dimethoxy-phenyl}-ethanone] was tested, and the IC50 was under 1 µM.
For `COc1ccc(C(=O)Cc2c(Cl)cncc2Cl)c(OCCc2ccc(S(C)(=O)=O)cc2)c1OC` [Compound 282, 2-(3,5-Dichloro-pyridin-4-yl)-1-{2-[2-(4-methanesulfonyl-phenyl)-ethoxy]-3,4-dimethoxy-phenyl}-ethanone], the IC50 was under 1 µM.
With `COc1ccc(C(=O)Cc2c(Cl)cncc2Cl)c(OCC(C)c2ccccc2)c1OC` (stereo not drawn) [Compound 284, 2-(3,5-Dichloro-pyridin-4-yl)-1-[3,4-dimethoxy-2-(2-phenyl-propoxy)-phenyl]-ethanone] the IC50 was under 1 µM.
Compound `COc1ccc(C(=O)Cc2c(Cl)cncc2Cl)c(OC(C)Cc2ccccc2)c1OC` (stereo not drawn) [Compound 285, 2-(3,5-Dichloro-pyridin-4-yl)-1-[3,4-dimethoxy-2-(1-methyl-2-phenyl-ethoxy)-phenyl]-ethanone] has an IC50 of under 1 µM.
For `CCCNC(=O)COc1c(C(=O)Cc2c(Cl)cccc2Cl)ccc(OC)c1OC` [Compound 288, 2-{6-[2-(2,6-Dichloro-phenyl)-acetyl]-2,3-dimethoxy-phenoxy}-N-propyl-acetamide], the IC50 was under 1 µM.
`CCCNC(=O)COc1c(C(=O)Cc2ccncc2)ccc(OC)c1OC` [Compound 289, 2-(2,3-Dimethoxy-6-(2-pyridin-4-yl-acetyl)-phenoxy)-N-propyl-acetamide] showed an IC50 of under 1 µM.
`CCCNC(=O)COc1c(C(=O)Cc2ccnc3ccccc23)ccc(OC)c1OC` [Compound 290] gave an IC50 of under 1 µM.
`CCCNC(=O)COc1c(C(=O)Cc2ccncc2Br)ccc(OC)c1OC` [Compound 292, 2-{6-[2-(3-Bromo-pyridin-4-yl)-acetyl]-2,3-dimethoxy-phenoxy}-N-propyl-acetamide] was tested, and the IC50 was under 1 µM.
`CCCNC(=O)COc1c(C(=O)Cc2c(Br)cncc2Br)ccc(OC)c1OC` [Compound 293, 2-{6-[2-(3,5-Dibromo-pyridin-4-yl)-acetyl]-2,3-dimethoxy-phenoxy}-N-propyl-acetamide] gave an IC50 of under 1 µM.
In the case of `COc1ccc(C(=O)Cc2c(Cl)cncc2Cl)c(OCC(=O)O)c1OC` [Compound 504, {6-[2-(3,5-Dichloro-pyridin-4-yl)-acetyl]-2,3-dimethoxy-phenoxy}-acetic acid], the IC50 is reported as under 1 µM.
